Patent publication US9890133B2 (priority 2011, dated 2018)
Converted amounts (≈) assume the structure as drawn.

Columns and labels:
[1] = tested on: Poliovirus 3; assay: microbe, parasite or virus in culture; format: cell-based; details: Enterovirus C, read-out: Poliovirus3 EC50
[2] = in vitro; details: human

| SMILES | EC50 [1] | CC50 [2] | CC50 ([2]; Picorana CC50) |
| --- | --- | --- | --- |
| Cc1c(C(=O)NC23C(=O)c4c(N)cccc4C2(O)Oc2cc(C(C)C)ccc23)sc2ccccc12 (centres unmarked) [Example 274, N-(1-Amino-4b-hydroxy-7-isopropyl-10-oxo-9b,10-dihydro-4bH-indeno[1,2-b]benzofuran-9b-yl)-3-methylbenzo[b]thiophene-2-carboxamide] | 0.036 µg/mL (≈ 0.0743 µM) | > 10 µg/mL |  |
| CC(C)c1ccc2c(c1)OC1(O)c3cccc(N)c3C(=O)C21NC(=O)c1cn2cccnc2n1 (centres unmarked) [Example 285, N-(1-Amino-4b-hydroxy-7-isopropyl-10-oxo-9b,10-dihydro-4bH-indeno[1,2-b]benzofuran-9b-yl)imidazo[1,2-a]pyrimidine-2-carboxamide] | < 0.01 µg/mL | > 10 µg/mL |  |
| CC(C)c1ccc2c(c1)OC1(O)c3cccc(N)c3C(=O)C21NC(=O)c1ccc[nH]1 (centres unmarked) [Example 233, N-(1-Amino-4b-hydroxy-7-isopropyl-10-oxo-9b,10-dihydro-4bH-indeno[1,2-b]benzofuran-9b-yl)-1H-pyrrole-2-carboxamide] | < 0.01 µg/mL | > 10 µg/mL | 31.9 µg/mL (≈ 79 µM) |
| CC(C)c1ccc2c(c1)OC1(O)c3ccccc3C(=O)C21NC(=O)c1c[nH]c2ccccc12 (centres unmarked) [Example 209, N-(4b-Hydroxy-7-isopropyl-10-oxo-9b,10-dihydro-4bH-indeno[1,2-b]benzofuran-9b-yl)-1H-indole-3-carboxamide] | 0.036 µg/mL (≈ 0.0821 µM) | 8.43 µg/mL (≈ 19.2 µM) | > 10 µg/mL |
| CC(C)c1ccc2c(c1)OC1(O)c3cccc(N)c3C(=O)C21NC(=O)c1cc2ccccc2[nH]1 (centres unmarked) [Example 265] | < 0.01 µg/mL | 4.4 µg/mL (≈ 9.7 µM) | 4.75 µg/mL (≈ 10.5 µM) |
| CC(C)c1ccc2c(c1)OC1(O)c3cccc(N)c3C(=O)C21NC(=O)c1cccnc1 (centres unmarked) [Example 198, N-(1-Amino-4b-hydroxy-7-isopropyl-10-oxo-9b,10-dihydro-4bH-indeno[1,2-b]benzofuran-9b-yl)nicotinamide] | < 0.01 µg/mL | 27.9 µg/mL (≈ 67.3 µM) | > 50 µg/mL |
| CC(C)c1ccc2c(c1)OC1(O)c3cccc(N)c3C(=O)C21NC(=O)c1ccc(OCc2ccccc2)cc1 (centres unmarked) [Example 181, N-(1-Amino-4b-hydroxy-7-isopropyl-10-oxo-9b,10-dihydro-4bH-indeno[1,2-b]benzofuran-9b-yl)-4-(benzyloxy)benzamide] | 0.036 µg/mL (≈ 0.0692 µM) | > 10 µg/mL |  |
| CC(C)c1ccc2c(c1)OC1(O)c3cccc(N)c3C(=O)C21NC(=O)c1cncc(F)c1 (centres unmarked) [Example 255, N-(1-Amino-4b-hydroxy-7-isopropyl-10-oxo-9b,10-dihydro-4bH-indeno[1,2-b]benzofuran-9b-yl)-5-fluoronicotinamide] | < 0.01 µg/mL | > 10 µg/mL |  |
| CC(C)c1ccc2c(c1)OC1(O)c3cccc(N)c3C(=O)C21NC(=O)c1ccc(C#N)cc1 (centres unmarked) [Example 170, N-(1-Amino-4b-hydroxy-7-isopropyl-10-oxo-9b,10-dihydro-4bH-indeno[1,2-b]benzofuran-9b-yl)-4-cyanobenzamide] | < 0.01 µg/mL | > 10 µg/mL |  |
| CC(C)c1ccc2c(c1)OC1(O)c3cccc(N)c3C(=O)C21NC(=O)c1cc2ccccc2cn1 (centres unmarked) [Example 248, N-(1-Amino-4b-hydroxy-7-isopropyl-10-oxo-9b,10-dihydro-4bH-indeno[1,2-b]benzofuran-9b-yl)isoquinoline-3-carboxamide] | 0.027 µg/mL (≈ 0.058 µM) | > 10 µg/mL | 4.99 µg/mL (≈ 10.7 µM) |
| CC(C)c1ccc2c(c1)OC1(O)c3cccc(N)c3C(=O)C21NC(=O)c1ccc2nccnc2c1 (centres unmarked) [Example 277, N-(1-Amino-4b-hydroxy-7-isopropyl-10-oxo-9b,10-dihydro-4bH-indeno[1,2-b]benzofuran-9b-yl)quinoxaline-6-carboxamide] |  | > 10 µg/mL |  |
| CC(=O)NC12Oc3cc(C(C)C)ccc3C1(NC(C)=O)C(=O)c1ccccc12 (centres unmarked) [Example 119] |  |  | 38.2 µg/mL (≈ 101 µM) |
| CCCC(=O)N[C@@]12C(=O)c3c(N)cccc3[C@]1(OC(=O)CCC)Oc1cc(C(C)C)ccc12 [Example 95, (4bR,9bS)-1-Amino-9b-butyramido-7-isopropyl-10-oxo-9b,10-dihydro-4bH-indeno[1,2-b]benzofuran-4b-yl butyrate] |  | 26 µg/mL (≈ 57.7 µM) | 38.1 µg/mL (≈ 84.5 µM) |
